Experiments:
CCR5 [1] = biological target: T1, CCR5 (Mus musculus, UniProt P51682); experiment: gp120-induced cofilin-rod formation in cultured hippocampal neurons, CCR5-tropic gp120 (Fig. 2A); format: cell-based; settings: cultured mouse hippocampal neurons devoid of immune cells
T1 construct: neurons express CCR5 and CXCR4 receptors that control synapse regeneration; endogenous in cells; host or cells: primary E16.5 mouse hippocampal neurons

CCR5 [2] = settings: pharmacologic blockade of CCR5 after stroke and traumatic brain injury; cited from earlier work
CXCR4 = CXCR4 (Mus musculus, UniProt P70658); settings: CXCR4 tropic gp120; cultured mouse hippocampal neurons devoid of immune cells
Sequence of CXCR4 (P70658 whole entry): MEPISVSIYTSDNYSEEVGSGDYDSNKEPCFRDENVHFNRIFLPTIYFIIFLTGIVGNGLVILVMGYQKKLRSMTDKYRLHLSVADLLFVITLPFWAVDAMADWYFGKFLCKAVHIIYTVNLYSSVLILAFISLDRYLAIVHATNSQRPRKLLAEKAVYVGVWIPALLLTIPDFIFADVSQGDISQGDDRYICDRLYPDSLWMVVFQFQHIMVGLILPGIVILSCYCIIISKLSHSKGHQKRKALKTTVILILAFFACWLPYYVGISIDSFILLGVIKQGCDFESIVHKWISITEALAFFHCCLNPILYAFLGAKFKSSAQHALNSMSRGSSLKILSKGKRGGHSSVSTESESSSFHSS
Description: Aβd/t was isolated from medium of cultured 7PA2 cells, a CHO cell line expressing a form of human APP found in Familial AD. […] Neuronal cultures, fixation, permeabilization, blocking and immunostaining is performed starting with E16.5 mouse hippocampal neurons by common methods in broad use.
Images of fixed neurons immunostained for cofilin, growth cones and nuclei captured across the entire coverslip are exported to ImageJ. Macro functions are applied to set local threshold and shape/size segmentation for both the cofilin and growth cone antibodies. Cofilin stained material that is not within neurites is eliminated. Results are reported as rods/nucleus, number of rods per area, rods as percent of total area, or, if NeuN stained or identified morphologically, rods per neuron.

[3] = HAND phase 2 human trials and brain scans; cited from earlier work

T1 sequence (P51682 whole entry): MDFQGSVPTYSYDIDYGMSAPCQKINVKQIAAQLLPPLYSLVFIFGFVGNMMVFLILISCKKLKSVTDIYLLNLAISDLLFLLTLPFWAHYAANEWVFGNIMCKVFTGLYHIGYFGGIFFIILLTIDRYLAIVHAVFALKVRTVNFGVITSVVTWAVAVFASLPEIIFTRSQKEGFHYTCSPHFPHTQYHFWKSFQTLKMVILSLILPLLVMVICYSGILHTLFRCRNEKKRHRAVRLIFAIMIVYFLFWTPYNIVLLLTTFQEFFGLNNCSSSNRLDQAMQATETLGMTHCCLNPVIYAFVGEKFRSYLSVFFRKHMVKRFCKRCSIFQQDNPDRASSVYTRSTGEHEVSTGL

Cc1nnc(C(C)C)n1[C@@H]1C[C@H]2CC[C@@H](C1)N2CC[C@H](NC(=O)C1CCC(F)(F)CC1)c1ccccc1 [maraviroc]
cofilin-rods formed by neurons treated with gp120 (CCR5 [1]): inhibited | dendritic spines and neurite cortical projections (CCR5 [2]): preservation of dendritic spines and new patterns of neurite cortical projections

c1cc(CN2CCCNCCNCCCNCC2)ccc1CN1CCCNCCNCCCNCC1 [AMD3100]
cofilin-rods formed by neurons treated with gp120 (CXCR4): inhibited

[D-Ala1]-Ser-Thr-Thr-Thr-Asn-Tyr-Thr-NH2 [DAPTA]
cognitive deficits [3]: able to reverse cognitive deficits
